Activity calls are given as the source filed them. No cut-off for these calls is given here.
Columns and labels:
[1] = target: T1, Ubiquitin carboxyl-terminal hydrolase 8 (Homo sapiens) (UniProt P40818); experiment: Inhibition of human USP8 (734 to 1110 residues) expressed in Escherichia coli BL21 (DE3) using ubiquitin rhodamine 110 as substrate assessed as remaining enzyme activity at 10 to 50 uM by fluorometric assay; conditions: dose 10-50 µM
T1 sequence (whole entry): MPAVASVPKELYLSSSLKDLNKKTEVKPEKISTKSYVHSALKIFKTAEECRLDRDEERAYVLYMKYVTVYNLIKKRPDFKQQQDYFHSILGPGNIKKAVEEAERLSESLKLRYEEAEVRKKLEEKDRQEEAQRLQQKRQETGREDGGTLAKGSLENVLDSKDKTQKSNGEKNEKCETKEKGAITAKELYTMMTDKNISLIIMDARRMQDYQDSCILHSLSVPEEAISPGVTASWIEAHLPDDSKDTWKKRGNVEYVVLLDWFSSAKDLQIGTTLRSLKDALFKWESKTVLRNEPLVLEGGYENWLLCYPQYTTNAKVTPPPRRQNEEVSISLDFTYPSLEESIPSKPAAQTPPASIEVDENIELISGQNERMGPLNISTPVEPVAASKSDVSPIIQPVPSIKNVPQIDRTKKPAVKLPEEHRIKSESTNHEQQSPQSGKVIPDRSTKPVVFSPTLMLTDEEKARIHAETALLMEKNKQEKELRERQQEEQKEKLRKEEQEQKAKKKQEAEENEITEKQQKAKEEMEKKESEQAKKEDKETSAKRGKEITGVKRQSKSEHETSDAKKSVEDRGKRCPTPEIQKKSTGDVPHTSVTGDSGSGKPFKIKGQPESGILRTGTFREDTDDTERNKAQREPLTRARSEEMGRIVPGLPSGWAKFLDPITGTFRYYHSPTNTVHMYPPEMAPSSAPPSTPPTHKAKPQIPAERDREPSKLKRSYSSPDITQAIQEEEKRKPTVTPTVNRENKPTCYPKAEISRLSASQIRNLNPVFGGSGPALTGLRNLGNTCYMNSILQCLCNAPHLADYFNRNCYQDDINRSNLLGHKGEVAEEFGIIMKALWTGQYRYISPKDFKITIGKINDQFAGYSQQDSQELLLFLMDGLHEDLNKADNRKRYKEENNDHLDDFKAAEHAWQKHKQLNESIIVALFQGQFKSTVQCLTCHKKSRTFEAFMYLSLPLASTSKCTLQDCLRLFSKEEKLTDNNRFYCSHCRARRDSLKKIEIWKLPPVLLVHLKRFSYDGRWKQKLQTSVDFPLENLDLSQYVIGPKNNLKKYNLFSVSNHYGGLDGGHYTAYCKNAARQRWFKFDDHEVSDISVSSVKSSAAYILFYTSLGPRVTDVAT

[2] = target: T2, Ubiquitin carboxyl-terminal hydrolase 2 (Homo sapiens) (UniProt O75604); experiment: Inhibition of human USP2 (251 to 605 residues) expressed in Escherichia coli BL21 (DE3) using ubiquitin rhodamine 110 as substrate assessed as remaining enzyme activity at 10 to 50 uM by fluorometric assay; conditions: dose 10-50 µM
T2 sequence (whole entry): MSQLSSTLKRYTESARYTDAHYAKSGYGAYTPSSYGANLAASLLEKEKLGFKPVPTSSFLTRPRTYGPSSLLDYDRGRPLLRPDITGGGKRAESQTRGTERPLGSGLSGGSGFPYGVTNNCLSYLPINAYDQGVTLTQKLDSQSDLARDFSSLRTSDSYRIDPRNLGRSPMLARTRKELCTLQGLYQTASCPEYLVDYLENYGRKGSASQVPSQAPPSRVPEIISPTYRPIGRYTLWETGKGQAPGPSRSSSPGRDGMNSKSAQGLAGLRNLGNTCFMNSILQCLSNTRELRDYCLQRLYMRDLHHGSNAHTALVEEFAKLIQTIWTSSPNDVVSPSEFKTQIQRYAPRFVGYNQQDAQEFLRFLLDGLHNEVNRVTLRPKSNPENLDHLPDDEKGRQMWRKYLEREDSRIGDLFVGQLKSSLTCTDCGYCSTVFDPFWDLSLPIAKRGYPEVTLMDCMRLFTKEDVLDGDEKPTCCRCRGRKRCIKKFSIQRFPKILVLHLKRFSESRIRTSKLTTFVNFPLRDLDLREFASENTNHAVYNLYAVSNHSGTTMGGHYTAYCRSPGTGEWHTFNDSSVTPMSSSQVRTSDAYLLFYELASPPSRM

[3] = target: T3, Ubiquitin carboxyl-terminal hydrolase 21 (Homo sapiens) (UniProt Q9UK80); experiment: Inhibition of human USP21 (209 to 563 residues) expressed in Escherichia coli BL21 (DE3) using ubiquitin rhodamine 110 as substrate assessed as remaining enzyme activity at 10 to 50 uM by fluorometric assay; conditions: dose 10-50 µM
T3 sequence (whole entry): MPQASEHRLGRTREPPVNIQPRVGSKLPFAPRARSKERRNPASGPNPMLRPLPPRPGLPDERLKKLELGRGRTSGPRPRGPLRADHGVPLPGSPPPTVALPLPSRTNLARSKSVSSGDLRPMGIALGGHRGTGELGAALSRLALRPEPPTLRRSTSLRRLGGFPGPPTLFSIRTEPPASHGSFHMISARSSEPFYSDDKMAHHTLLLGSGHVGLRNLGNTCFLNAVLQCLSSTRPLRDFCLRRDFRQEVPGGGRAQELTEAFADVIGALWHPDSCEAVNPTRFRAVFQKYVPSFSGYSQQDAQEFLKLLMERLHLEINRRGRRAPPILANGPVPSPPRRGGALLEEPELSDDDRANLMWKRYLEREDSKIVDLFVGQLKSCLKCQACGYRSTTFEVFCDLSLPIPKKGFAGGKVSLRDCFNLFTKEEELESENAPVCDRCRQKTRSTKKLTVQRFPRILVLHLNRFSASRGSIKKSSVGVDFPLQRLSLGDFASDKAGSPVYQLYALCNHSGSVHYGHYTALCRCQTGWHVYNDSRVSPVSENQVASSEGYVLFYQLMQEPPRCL

MDA-MB-231 = experiment: Antiproliferative activity against human MDA-MB-231 cells assessed as reduction in cell viability up to 30 uM incubated for 72 hrs by CellTiter-Glo luminescent assay; type: functional, cell-based
Jurkat = experiment: Antiproliferative activity against human Jurkat cells assessed as reduction in cell viability up to 30 uM incubated for 72 hrs by CellTiter-Glo luminescent assay; type: functional, cell-based

Row | SMILES | Activity [1] [%] | Activity [2] [%] | Activity [3] [%] | Activity (MDA-MB-231) | Activity (Jurkat)
1 | CC(NC(=O)C1CCCC1)C(=O)Nc1nnc(Cc2ccc([N+](=O)[O-])cc2)s1 (racemic) | < 50 | < 50 | < 50 | – | –
2 | CC(C)C[C@H](NC(=O)C1(C(F)(F)F)CCCCC1)C(=O)Nc1nnc(Cc2ccc(C#N)cc2)s1 | – | – | – | inactive | inactive

From ChEMBL document CHEMBL5247643, “Discovery and Characterization of BAY-805, a Potent and Selective Inhibitor of Ubiquitin-Specific Protease USP21” (J Med Chem, 2023)
